From patent publication US10183944B2 (Asana Biosciences, LLC, priority 2011, dated 2019)
Where a name gives a salt, the structure may show the parent alone. Read-outs that look alike come from different tables or passages of the source.

What was measured:
[1] = target: Syk (356-635 amino acids) catalytic domain (Homo sapiens (Human), UniProt P43405); assay: Inhibition of enzymatic Syk kinase activity (radiometric); format: biochemical; conditions: read-out: IC50 Syk
Method in brief: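 Human Syk (356-635) kinase domain (0.035–7.5 ng/reaction) preincubated with compound 30 minutes at room temperature, then reacted with pG4T substrate, 100 μM ATP (stock) and γ-32P-ATP for 10 minutes at 30° C. Reaction stopped with HCl/ATP, spotted on P81 paper, washed and counted by scintillation. Percent inhibition versus no-compound counts.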

[2] = tested on: RBL2H3 cells; assay: Degranulation assay: β-hexosaminidase release during immune complex mediated degranulation; format: cell-based, rat; conditions: for inhibition at 1 µM: read-out: Degranulation % inhibition at 1 μM; for EC50: read-out: Degranulation EC50
Description: The objective of this assay was to examine by Fluorescence method the effect of compounds on β-hexosaminidase release during immune complex mediated degranulation in RBL2H3 cells. Compounds were tested for their ability to inhibit the ability of this immune complex to mediate β-hexosaminidase release, in an enzyme assay with […] as substrate. […] Emission 460 nm). [table] [table] RBL2H3 cells were maintained in MEM complete media containing 10% FBS at 70%-80% confluence in a mammalian cell culture CO2 incubator with 5% CO2 at 37° C. 2×10^5 cells/well were plated in 1 mL of complete media and incubated for 5 hours for cell attachment. Complete media was replaced with 1 mL of serum free MEM media containing 1.2 μg/mL of anti-DNP rat IgE as sensitizing agent and further incubated overnight with 5% CO2 at 37° C. […] Cells were further stimulated with 5 μg/mL of DNP-BSA for 60 minutes. Plates were centrifuged for 5 minutes at 1000 rpm and 25 μL of culture supernatant was transferred from each assay well into a 96 well black coated plate. 25 μL β-NAG substrate was added to this mixture and incubated at room temperature for 30 minutes. The reaction was terminated with 100 μL of stop solution and fluorescence was monitored. (Excitation 355 nm; Emission 460 nm) See, Sanderson, (2010), Cellular Immunology, 262(1): 28-34 and Silverman, (2006) MCB, 26(5):1826-1838, which are incorporated herein by reference. The % release of β-Hexosaminidase for the test compound was calculated using the following formula: RBL2H3 cells were maintained in MEM complete media containing 10% FBS at 70-80% confluence in a mammalian cell culture CO2 incubator with 5% CO2 at 37° C. 5×10^4 cells/well were plated in 200 μL of complete media containing 0.3 μg/mL of anti-DNP rat IgE as sensitizing agent for 24 hours at 37° C. & 5% CO2. The following day, cells were washed twice with PIPES buffer for 10 minutes at 37° C. and replenished with serum free MEM media. Cells were treated with various concentrations of test compounds (in 0.5% DMSO) for 15 minutes at 37° C. and 5% CO2. The cells were further stimulated with 0.1 μg/mL of DNP-BSA for 45 minutes. The plates were spun for 5 minutes at 2000 rpm and 25 μL of culture supernatant was then transferred from each assay well into a 96 well black coated plate. […] β-NAG substrate was added and incubated at RT for 30 minutes. After incubation with substrate, 150 μL of stop solution was added and fluorescence was monitored. (Excitation 355 nm; Emission 460 nm). See, Yamamoto, JPET, 306(3):1174-1181 (2003) and Taylor, MCB, 15(8): 4149-4157 (1995), which are herein incorporated by reference. Release of β-hexosaminidase during the degranulation process by immune complex mediated FcεRI stimulation is through the SYK pathway. The % inhibition of β-hexosaminidase release by Syk inhibitor gives information with regard to its Syk inhibition potency.

[3] = target: JAK2 (Homo sapiens (Human), UniProt O60674); assay: Inhibition of enzymatic JAK2 kinase activity (TR-FRET); format: biochemical; conditions: read-out: IC50 JAK
Method in brief: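 Enzyme preincubated with compound 30 min at RT, then Ulight-poly-GT substrate and ATP added for 60 min at RT. EDTA stop, Eu-antiphosphotyrosine antibody; TR-FRET ratio 665/615 nm (ex 340 nm), blank-corrected; % inhibition versus positive control.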

[4] = Rattus norvegicus, RBL-2H3, 1 μM, Assay Protocol B (96 well format)
[5] = Rattus norvegicus, RBL-2H3, Assay Protocol B (96 well format)
[6] = Rattus norvegicus, RBL-2H3, 1 μM, Assay Protocol A (24 well format)

Sequence of JAK2 (O60674 808-1132): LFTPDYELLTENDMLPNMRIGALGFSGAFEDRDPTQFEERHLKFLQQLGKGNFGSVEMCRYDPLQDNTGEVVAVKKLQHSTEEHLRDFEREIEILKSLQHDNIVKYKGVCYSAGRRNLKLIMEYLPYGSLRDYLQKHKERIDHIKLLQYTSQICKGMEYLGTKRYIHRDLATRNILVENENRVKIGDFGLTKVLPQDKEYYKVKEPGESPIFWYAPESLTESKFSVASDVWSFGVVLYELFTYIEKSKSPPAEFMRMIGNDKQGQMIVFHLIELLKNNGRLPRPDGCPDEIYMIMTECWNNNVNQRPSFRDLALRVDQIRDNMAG

O=c1[nH]ncc2nc(N3CCCCCC3)nc(Nc3ccc(OCCN4CCOCC4)cc3)c12 [Example 93, 2-(azepan-1-yl)-4-((4-(2-morpholinoethoxy)phenyl)amino) pyrimido[4,5-d]pyridazin-5(6H)-one]
IC50 [1]: < 50 nM
inhibition at 1 µM [2, 4]: 49%
IC50 [3]: < 50 nM

O=c1[nH]ncc2nc(N3CCCCCC3)nc(Nc3ccc(OC4CCN(CCO)CC4)cc3)c12 [Example 329, 2-(azepan-1-yl)-4-((4-((1-(2-hydroxyethyl)piperidin-4-yl)oxy)phenyl)amino) pyrimido[4,5-d]pyridazin-5(6H)-one]
IC50 [1]: < 10 nM
inhibition at 1 µM [2, 4]: 69%
EC50 [2, 5]: 62 nM
IC50 [3]: < 10 nM

CN(c1nc(Nc2ccc(N3CCC(CC(=O)O)CC3)cc2)c2c(=O)[nH]ncc2n1)C1CCCCC1 [Example 161, 2-(1-(4-((2-(cyclohexyl(methyl)amino)-5-oxo-5,6-dihydropyrimido[4,5-d]pyridazin-4-yl)amino)phenyl)piperidin-4-yl)acetic acid]
IC50 [1]: < 50 nM
inhibition at 1 µM [2, 4]: 74%
EC50 [2, 5]: 39 nM
IC50 [3]: < 10 nM

O=C1CN(CCOc2ccc(Nc3nc(N4CCCCCC4)nc4cn[nH]c(=O)c34)cc2)CCN1 [Example 157, 2-(azepan-1-yl)-4-((4-(2-(3-oxopiperazin-1-yl)ethoxy)phenyl)amino) pyrimido[4,5-d]pyridazin-5(6H)-one]
IC50 [1]: < 50 nM
inhibition at 1 µM [2, 4]: 70%
EC50 [2, 5]: 42 nM
IC50 [3]: < 50 nM

O=C(O)CN1CCC(Oc2ccc(Nc3nc(N4CCCCCC4)nc4cn[nH]c(=O)c34)cc2)CC1 [Example 254, 2-(4-(4-((2-(azepan-1-yl)-5-oxo-5,6-dihydropyrimido[4,5-d]pyridazin-4-yl)amino)phenoxy)piperidin-1-yl) acetic acid]
IC50 [1]: < 10 nM
inhibition at 1 µM [2, 4]: 24%
EC50 [2, 5]: 1200 nM
IC50 [3]: < 50 nM

O=C(O)CC1CCCN(c2ccc(Nc3nc(N4CCCCCC4)nc4cn[nH]c(=O)c34)cc2)C1 (stereo not drawn) [Example 233, 2-(1-(4-((2-(azepan-1-yl)-5-oxo-5,6-dihydropyrimido[4,5-d]pyridazin-4-yl)amino)phenyl)piperidin-3-yl)acetic acid]
IC50 [1]: < 10 nM
inhibition at 1 µM [2, 4]: 20%
EC50 [2, 5]: 174 nM
IC50 [3]: < 10 nM

N=Cc1nc(N2CCCCCC2)nc(Nc2ccc(N3CCCC(CC(=O)O)C3)cc2)c1C(N)=O (stereo not drawn) [Example 232]
IC50 [1]: < 50 nM
Degranulation % inhibition at 1 μM ([2]; 1 μM, Assay Protocol B (96 well format)): 0%
EC50 ([2]; Assay Protocol B (96 well format)): 619 nM
IC50 [3]: < 10 nM

CC(C)(CO)N1CCN(c2ccc(Nc3nc(N4CCCCCC4)nc4cn[nH]c(=O)c34)cc2)CC1 [Example 265, 2-(azepan-1-yl)-4-((4-(4-(1-hydroxy-2-methylpropan-2-yl)piperazin-1-yl)phenyl)amino)pyrimido[4,5-d]pyridazin-5(6H)-one]
IC50 [1]: < 10 nM
inhibition at 1 µM [2, 4]: 79%
EC50 [2, 5]: 30 nM
IC50 [3]: < 10 nM

O=C(O)C1CC12CCN(c1ccc(Nc3nc(-c4ccsc4)nc4cn[nH]c(=O)c34)cc1)CC2 (stereo not drawn) [Example 39, 6-(4-(5-oxo-2-(thiophen-3-yl)-5,6-dihydropyrimido[4,5-d]pyridazin-4-ylamino)phenyl)-6-azaspiro[2.5]octane-1-carboxylic acid]
IC50 [1]: < 50 nM
inhibition at 1 µM [2, 4]: 100%
IC50 [3]: < 50 nM

CCN1CCN(c2ccc(Nc3nc(-c4ccccc4)nc4cn[nH]c(=O)c34)cc2)CC1 [Example 5, 4-(4-(4-ethylpiperazin-1-yl)phenylamino)-2-phenylpyrimido[4,5-d]pyridazin-5(6H)-one]
IC50 [1]: < 10 nM
inhibition at 1 µM [2, 6]: 100%
EC50 ([2]; Rattus norvegicus, RBL-2H3, Assay Protocol A (24 well format)): 39 nM
IC50 [3]: < 50 nM

O=c1[nH]ncc2nc(-c3ccccc3)nc(Nc3ccc(N(CCO)CCO)cc3)c12 [Example 10, 4-(4-(bis(2-hydroxyethyl)amino)phenylamino)-2-phenylpyrimido[4,5-d]pyridazin-5(6H)-one]
IC50 [1]: < 50 nM
inhibition at 1 µM [2, 6]: 100%
IC50 [3]: < 100 nM

CC(C)N(c1nc(Nc2ccc(CN3CCNCC3)cc2)c2c(=O)[nH]ncc2n1)C(C)C [Example 54, 2-(diisopropylamino)-4-((4-(piperazin-1-ylmethyl)phenyl)amino)pyrimido[4,5-d]pyridazin-5(6H)-one hydrochloride]
IC50 [1]: < 10 nM
inhibition at 1 µM [2, 4]: 100%
EC50 [2, 5]: 13 nM
IC50 [3]: < 10 nM

O=C(O)C1CC12CCN(c1nc(Nc3ccc(CN4CCNCC4)cc3)c3c(=O)[nH]ncc3n1)CC2 (stereo not drawn) [Example 25, 6-(5-oxo-4-(4-(piperazin-1-ylmethyl)phenylamino)-5,6-dihydropyrimido[4,5-d]pyridazin-2-yl)-6-azaspiro[2.5]octane-1-carboxylic acid hydrochloride]
IC50 [1]: < 50 nM
inhibition at 1 µM [2, 6]: 79%
IC50 [3]: < 100 nM

CCN1CCN(c2ccc(Nc3nc(N4CCC(CC#N)CC4)nc4cn[nH]c(=O)c34)cc2)CC1 [Example 187, 2-(1-(4-((4-(4-ethylpiperazin-1-yl)phenyl)amino)-5-oxo-5,6-dihydropyrimido[4,5-d]pyridazin-2-yl)piperidin-4-yl)acetonitrile]
IC50 [1]: < 10 nM
inhibition at 1 µM [2, 4]: 100%
EC50 [2, 5]: 12 nM
IC50 [3]: < 50 nM

O=C(O)CN1CCCN(c2ccc(Nc3nc(N4CCCCCC4)nc4cn[nH]c(=O)c34)cc2)CC1 [Example 145, 2-(4-(4-((2-(azepan-1-yl)-5-oxo-5,6-dihydropyrimido[4,5-d]pyridazin-4-yl)amino)phenyl)-1,4-diazepan-1-yl)acetic acid]
IC50 [1]: < 10 nM
inhibition at 1 µM [2, 4]: 52%
EC50 [2, 5]: 98 nM
IC50 [3]: < 10 nM

CCN(CC)CCOc1ccc(Nc2nc(N3CCCCCC3)nc3cn[nH]c(=O)c23)cc1 [Example 159, 2-(azepan-1-yl)-4-((4-(2-(diethylamino)ethoxy)phenyl)amino)pyrimido[4,5-d]pyridazin-5(6H)-one]
IC50 [1]: < 50 nM
inhibition at 1 µM [2, 4]: 68%
EC50 [2, 5]: 56 nM
IC50 [3]: < 10 nM

CN1CCN(C(=O)COc2ccc(Nc3nc(N4CCCCCC4)nc4cn[nH]c(=O)c34)cc2)CC1 [Example 283, 2-(azepan-1-yl)-4-((4-(2-(4-methylpiperazin-1-yl)-2-oxoethoxy)phenyl)amino)pyrimido[4,5-d]pyridazin-5(6H)-one]
IC50 [1]: < 10 nM
inhibition at 1 µM [2, 4]: 71%
EC50 [2, 5]: 39 nM
IC50 [3]: < 10 nM

O=C(O)CC1CCN(CCOc2ccc(Nc3nc(N4CCCCCC4)nc4cn[nH]c(=O)c34)cc2)CC1 [Example 96, 2-(1-(2-(4-((2-(azepan-1-yl)-5-oxo-5,6-dihydropyrimido[4,5-d]pyridazin-4-yl)amino)phenoxy)ethyl)piperidin-4-yl) acetic acid]
IC50 [1]: < 10 nM
inhibition at 1 µM [2, 4]: 85%
EC50 [2, 5]: 280 nM
IC50 [3]: < 10 nM

CC1(O)CCN(CCOc2ccc(Nc3nc(N4CCCCCC4)nc4cn[nH]c(=O)c34)cc2)CC1 [Example 184, 2-(azepan-1-yl)-4-((4-(2-(4-hydroxy-4-methylpiperidin-1-yl)ethoxy)phenyl)amino)pyrimido[4,5-d]pyridazin-5(6H)-one]
IC50 [1]: < 10 nM
inhibition at 1 µM [2, 4]: 65%
EC50 [2, 5]: 33 nM
IC50 [3]: < 10 nM
